Results published in US20220073496A1, “NOVEL QUINOLINE DERIVATIVE INHIBITOR” (Nanjing Transthera Biosciences Co., Ltd., priority 2018, published 2022).
Where two headings read alike, the source gives them in different places.

Assays:
[1] = Stability in liver microsome of dogs; assay type: in vitro ADME; details: Dog liver microsome 0.5 mg protein/mL, compound 1 μM, 37° C.; for half-life at 1 μM / microsomal CLint at 1 μM: liver microsomes
Protocol: Assay 1: Stability assessment of the compounds of the present invention in liver microsome of mice and dogs
Test substances: the compounds of the present invention, wherein the structures and preparations thereof were as described above.
The composition of the incubation system:
Preparation of Test Substances:
An appropriate amount of the compound was accurately weighed and dissolved in DMSO to prepare a 5.0 mM stock solution. The 5.0 mM stock solution was diluted to 1.0 mM with DMSO, and finally diluted with water to a 10 μM test substance working solution for use (the DMSO content in the reaction system was 0.1%).
(1) The liver microsome (20 mg protein/mL) was taken out from the −80° C. refrigerator, pre-incubated at 37° C. with a water-bathing constant temperature vibrator for 3 minutes, and melted for use.
(2) A mixed solution of the incubation system (excluding compounds and β-NADPH) according to the above “composition of the incubation system” for the assay was prepared, and pre-incubated at 37° C. with a water-bathing constant temperature vibrator for 2 minutes.
(3) Control group (excluding β-NADPH): 30 μL of water and 30 μL of compound working solution (10 μM) were added to 240 μL of the mixed solution of the incubation system of step (2), and vortexed for 30 seconds to mix well. The total reaction volume was 300 μL. A duplicate sample was prepared. The sample was incubated at 37° C. with a water-bathing constant temperature vibrator. The timekeeping began and the sampling time points were set at 0 minute and 60 minutes.
(4) Sample group: 70 μL of β-NADPH solution (10 mM) and 70 μL of compound working solution (10 μM) were added to 560 μL of the mixed solution of step (2). The total reaction volume was 700 μL. The resulting mixture was vortexed for 30 seconds to mix well. A duplicate sample was prepared. The sample was incubated at 37° C. with a water-bathing constant temperature vibrator. The timekeeping began and the sampling time points were set at 0 minute, 5 minutes, 10 minutes, 20 minutes, 30 minutes, and 60 minutes after timekeeping.
(5) After vortexing for 3 minutes, the sample was centrifuged at 4000 rpm for 10 minutes.
(6) 50 μL of the supernatant was taken and 150 μL of water was added. The resulting mixture was vortexed to mix well, and analyzed by LC/MS/MS.
The half-life (t1/2) and clearance rate (Cl) were calculated using the following first-order kinetic formula:
Vd=1/protein content in liver microsome
Note: k was the slope of the logarithm of the remaining amount of the compound versus time, and Vd was the apparent distribution volume.

Rat PK evaluation = assay type: in vivo; details: SD rats; for Vz_obs iv (apparent distribution volume) / bioavailability / AUC(0-t) / clearance / half-life: n = 3; for bioavailability / AUC(0-t) / clearance / half-life / Tmax: rat, plasma; for bioavailability: read-out: F % (absolute bioavailability); for clearance: read-out: Cl_obs iv (clearance rate) (converted); for Tmax: n = 3, median, read-out: Tmax po (time to peak plasma concentration)
Protocol: Assay 2: Rat PK Evaluation for the Compounds of the Present Invention
Animal Administration and Sample Collection:
(§1) The test compounds 14, 15, 16, 20, 29, 30, 31, 32, 33, 34, 36, 37, 47 and 48 were dissolved in 5% DMSO+20% (30% solutol)+75% saline to prepare the compound solutions. Each of the compound solutions was intragastrically administered to SD rats at a dose of 5.0 mg/kg. The time points of blood collection were: 15 minutes, 30 minutes, 1 hour, 2 hours, 4 hours, 6 hours, 8 hours, 24 hours, 30 hours, and 48 hours.
The test compounds 38, 39, 40 and 41 were dissolved in 5% NMP+5% Tween-80+90% saline to prepare the compound solutions. Each of the compound solutions was intragastrically administered to SD rats at a dose of 5.0 mg/kg. The time points of blood collection were: 15 minutes, 30 minutes, 1 hour, 2 hours. 4 hours, 6 hours, 8 hours, 24 hours, 30 hours, and 48 hours.
as §1, with “was” for “was intragastrically”, “administered by intravenous bolus injection” for “administered”, “1” for “5.0”, “were: 5 minutes,” for “were:”, “hours,” for “hours, 30 hours,”
The test compounds 38, 39, 40 and 41 were dissolved in 5% NMP+5% Tween-80+90% saline to prepare the compound solutions. Each of the compound solutions was administered by intravenous bolus injection to SD rats at a dose of 1 mg/kg. The time points of blood collection were: 5 minutes, 15 minutes, 30 minutes, 1 hour, 2 hours, 4 hours, 6 hours, 8 hours, 24 hours, and 48 hours.
The animal was fixed. The tail was heated in a water bath pot 10 minutes before each time point. About 100 μL of blood was collected through the tail vein. The blood was collected and placed in an anti-coagulation tube containing EDTA-K2. The blood sample was centrifuged at 8000 rpm for 6 minutes at 4° C. to obtain a plasma sample. The plasma was prepared within 30 minutes after the blood collection. The plasma was stored in a −80° C. refrigerator before testing.
The sample to be tested was taken out from the −80° C. refrigerator, naturally melted at room temperature and vortexed for 5 minutes. 20 μL of plasma sample was accurately pipetted into a 1.5 mL centrifuge tube. 200 μL of an internal standard working solution (a solution of tolbutamide in methanol) having a concentration of 100 ng/mL was added and mixed well. The mixture was vortexed for 5 minutes, and centrifuged at 12000 rpm for 5 minutes. 50 μL of the supernatant was accurately pipetted into a 96-well plate pre-filled with 150 μL/well of water. The plate was vortexed for 5 minutes and mixed well, and then the LC-MS/MS determination and analysis were performed.
The concentration of the test substance was output using Analyst 1.6.3 from AB Company. Parameters such as mean, standard deviation, and coefficient of variation were calculated with Microsoft Excel (direct outputs from Analyst 1.6.3 were not calculated), and the PK parameters were calculated using Pharsight Phoenix 6.1 software NCA (Tmax was the median).

[2] = IV 1 mg/kg, read-out: AUClast iv (area under the drug-time curve from 0 to 48 hours)
[3] = IV 1 mg/kg, read-out: tz1/2 iv (terminal elimination half-life) (converted)
[4] = PO 5 mg/kg, read-out: AUClast po (area under the drug-time curve from 0 to 48 hours)
[5] = PO 5 mg/kg, read-out: tz1/2 po (terminal elimination half-life) (converted)

Compound | half-life at 1 μM [1] | microsomal CLint at 1 μM [1] | Vz_obs iv (apparent distribution volume) (Rat PK evaluation; IV 1 mg/kg) | bioavailability (Rat PK evaluation; IV 1 mg/kg, PO 5 mg/kg) | AUC(0-t) (Rat PK evaluation; [2]) | clearance (Rat PK evaluation; IV 1 mg/kg) | half-life (Rat PK evaluation; [3]) | Tmax (Rat PK evaluation; PO 5 mg/kg) | AUC(0-t) (Rat PK evaluation; [4]) | half-life (Rat PK evaluation; [5]) | t1/2 [1]
COc1cc2nccc(Oc3ccc(NC(=O)c4cn(C(C)C)cc(-c5ccc(C)cc5)c4=O)nc3)c2cc1OC [Compound 1, N-(5-((6,7-dimethoxyquinolin-4-yl)oxy)pyridin-2-yl)-1-isopropyl-4-oxo-5-p-tolyl-1,4-dihydropyridin-3-carboxamide] | 0.21 h | 110 µL/min/mg |  |  |  |  |  |  |  |  | 
COc1cc2nccc(Oc3ccc(NC(=O)c4cn(C(C)C)cc(-c5ccc(F)cc5)c4=O)nc3)c2cc1OC [Compound 14, N-(5-((6,7-dimethoxyquinolin-4-yl)oxy)pyridin-2-yl)-5-(4-fluorophenyl)-1-isopropyl-4-oxo-1,4-dihydropyridin-3-carboxamide] | 2.57 h | 9 µL/min/mg | 0.25 L/kg | 63.2% | 34900 ng·h/mL | 0.45 mL/min/kg | 6.3 h | 2 h | 110000 ng·h/mL | 12.1 h | 
COc1cc2nccc(Oc3ccc(NC(=O)c4nn(C(C)C)cc(-c5ccc(F)cc5)c4=O)nc3)c2cc1OC [Compound 15, N-(5-((6,7-dimethoxyquinolin-4-yl)oxy)pyridin-2-yl)-5-(4-fluorophenyl)-1-isopropyl-4-oxo-1,4-dihydropyridazine-3-carboxamide] | 3.73 h | 6.2 µL/min/mg | 1.23 L/kg | 78.9% | 18100 ng·h/mL | 0.783 mL/min/kg | 18.5 h |  | 67400 ng·h/mL | 20.5 h | 
COc1cc2nccc(Oc3cnc(NC(=O)c4nn(C(C)C)cc(-c5ccc(F)cc5)c4=O)nc3)c2cc1OC [Compound 16, N-(5-((6,7-dimethoxyquinolin-4-yl)oxy)pyrimidine-2-yl)-5-(4-fluorophenyl)-1-isopropyl-4-oxo-1,4-dihydropyridazine-3-carboxamide] | 8.25 h | 2.8 µL/min/mg | 0.12 L/kg | 35.6% | 48600 ng·h/mL | 0.35 mL/min/kg | 4.13 h | 1 h | 86400 ng·h/mL | 5.67 h | 
COc1cc2nccc(Oc3cnc(NC(=O)c4cn(C(C)C)cc(-c5ccc(F)cc5)c4=O)nc3)c2cc1OC [Compound 20, N-(5-((6,7-dimethoxyquinolin-4-y)oxy)pyrimidine-2-yl)-5-(4-fluorophenyl)-1-isopropyl-4-oxo-1,4-dihydropyridin-3-carboxamide] | 6.08 h | 3.8 µL/min/mg | 0.18 L/kg | 53.3% | 29100 ng·h/mL | 0.667 mL/min/kg | 3.1 h | 6 h | 77900 ng·h/mL | 5.4 h | 

Further lines, results first:

half-life at 1 μM [1] | microsomal CLint at 1 μM [1] | Vz_obs iv (apparent distribution volume) (Rat PK evaluation; IV 1 mg/kg) | bioavailability (Rat PK evaluation; IV 1 mg/kg, PO 5 mg/kg) | AUC(0-t) (Rat PK evaluation; [2]) | clearance (Rat PK evaluation; IV 1 mg/kg) | half-life (Rat PK evaluation; [3]) | Tmax (Rat PK evaluation; PO 5 mg/kg) | AUC(0-t) (Rat PK evaluation; [4]) | half-life (Rat PK evaluation; [5]) | t1/2 [1] | Compound
 |  | 3.32 L/kg | 81.6% | 6000 ng·h/mL | 2.5 mL/min/kg | 15.2 h | 4 h | 25500 ng·h/mL | 12.1 h |  | COc1cc2nccc(Oc3ccc(NC(=O)c4cn(C(C)C)nc(-c5ccc(F)cc5)c4=O)cn3)c2cc1OC [Compound 38, N-(6-((6,7-dimethoxyquinolin-4-yl)oxy)pyridin-3-yl)-6-para-fluorophenyl-2-isopropyl-5-oxo-2,5-dihydropyridazine-4-carboxamide]
 |  | 6.81 L/kg | 103% | 2750 ng·h/mL | 5.83 mL/min/kg | 14.1 h | 4 h | 14400 ng·h/mL | 13.7 h |  | COc1cc2nccc(Oc3ccc(NC(=O)c4cn(C(C)C)nc(-c5ccc(F)cc5)c4=O)nc3)c2cc1OC [Compound 41, N-(5-((6,7-dimethoxyquinolin-4-yl)oxy)pyridin-2-yl)-6-(4-fluorophenyl)-2-isopropyl-5-oxo-2,5-dihydropyridazine-4-carboxamide]
 |  |  |  |  |  |  |  |  |  | →∞ | COc1cc2nccc(Oc3ccc(NC(=O)c4cn(C5CC5)nc(-c5ccc(F)cc5)c4=O)nc3)c2cc1OC [Compound 42, 2-cyclopropyl-N-(5--((6,7-dimethoxyquinolin-4-yl)oxy)pyridin-2-yl)-6-(4-fluorophenyl)-5-oxo-2,5-dihydropyridazine-4-carboxamide]
2.4 h | 9.6 µL/min/mg |  |  |  |  |  |  |  |  |  | COc1cc2nccc(Oc3ccc(NC(=O)c4cn(C5CC5)nc(-c5ccc(F)cc5)c4=O)cn3)c2cc1OC [Compound 43, 2-cyclopropyl-N-(6-((6,7-dimethoxyquinolin-4-yl)oxy)pyridin-3-yl)-6-para-fluorophenyl-5-oxo-2,5-dihydropyridazine-4-carboxamide]
9.63 h | 2.4 µL/min/mg |  |  |  |  |  |  |  |  |  | COc1cc2nccc(Oc3cnc(NC(=O)c4cn(C5CC5)nc(-c5ccc(F)cc5)c4=O)nc3)c2cc1OC [Compound 45, 2-cyclopropyl-N-(5-((6,7-dimethoxyquinolin-4-yl)oxy)pyrimidine-2-yl)-6-(4-fluorophenyl)-5-oxo-2,5-dihydropyridazine-4-carboxamide]
0.208 h | 111 µL/min/mg |  |  |  |  |  |  |  |  |  | COc1cc2nccc(Oc3ccc(NC(=O)c4nn(C5CC5)cc(-c5ccc(C)cc5)c4=O)nc3)c2cc1OC [Compound 46, 1-cyclopropyl-N-(5-((6,7-dimethoxyquinolin-4-yl)oxy)pyridin-2-yl)-4-oxo-5-p-tolyl-1,4-dihydropyridazine-3-carboxamide]
